# Inconclusive results are not listed. Calls of active or inactive are those of the source.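 Rule for the calls: active = remaining helicase activity under 10% at 30 micromolar; inconclusive = remaining helicase activity between 10% and 50%; inactive = remaining helicase activity over 50%.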
# System: Hepatitis C virus NS3 helicase
# Experiment: HCV NS3 helicase DNA unwinding inhibitors, primary screen, biochemical, fluorescence, FAM-quenched DNA substrate, full-length NS3 (AID 1347039)
# Conditions: recombinant NS3 DNA unwinding, FAM fluorescence rate; at 30 µM; active compounds read low
row,SMILES,remaining helicase activity
1,O=C1NC(=S)NC(=O)C1=Cc1cn(C(=O)c2ccccc2Br)c2ccc(Br)cc12,53.2% (inactive)
2,COc1ccc2c(c1)c(C=C1C(=O)NC(=S)NC1=O)cn2C(=O)c1cccc2ccccc12,0%
3,O=C1NC(=S)NC(=O)C1=Cc1cn(C(=O)c2ccccc2)c2ccccc12,56.3% (inactive)
4,O=C1NC(=S)NC(=O)C1=Cc1cn(C(=O)c2ccccc2Br)c2ccc(Cl)cc12,83.8% (inactive)
5,O=C1NC(=S)NC(=O)C1=Cc1cn(C(=O)c2ccc(F)cc2)c2ccccc12,51.1% (inactive)
6,O=C1NC(=S)NC(=O)C1=Cc1cn(C(=O)c2ccccc2)c2ccc(Cl)cc12,73.2% (inactive)
7,O=C1NC(=S)NC(=O)C1=Cc1cn(C(=O)c2cccc3ccccc23)c2ccc(Cl)cc12,33.4% (inactive)
8,O=C1NC(=S)NC(=O)C1=Cc1cn(C(=O)c2cccc3ccccc23)c2ccccc12,22.3% (inactive)
9,COc1ccc(C(=O)n2cc(C=C3C(=O)NC(=S)NC3=O)c3ccccc32)cc1,54.6% (inactive)
10,COc1ccc2c(c1)c(C=C1C(=O)NC(=S)NC1=O)cn2C(=O)c1ccc2ccccc2c1,6.3%
11,COc1ccc2c(c1)c(C=C1C(=O)NC(=S)NC1=O)cn2C(=O)c1ccccc1,79.2% (inactive)
12,COc1ccc(C(=O)n2cc(C=C3C(=O)NC(=S)NC3=O)c3cc(OC)ccc32)cc1,55.2% (inactive)
13,O=C1NC(=S)NC(=O)C1=Cc1cn(C(=O)c2ccc3ccccc3c2)c2ccccc12,0%
14,O=C1NC(=S)NC(=O)C1=Cc1cn(C(=O)c2ccc3ccccc3c2)c2ccc(Cl)cc12,73.3% (inactive)
15,COc1ccc(C(=O)n2cc(C=C3C(=O)NC(=S)NC3=O)c3cc(Cl)ccc32)cc1,53.2% (inactive)
16,COc1ccc(C(=O)n2cc(C=C3C(=O)NC(=S)NC3=O)c3cc(Br)ccc32)cc1,61.9% (inactive)
17,O=C1NC(=S)NC(=O)C1=Cc1cn(C(=O)c2ccccc2Br)c2ccccc12,63.5% (inactive)
